We go through three molecules from article PMC4356374, “Structural characterization of substrate and inhibitor binding to farnesyl pyrophosphate synthase from Pseudomonas aeruginosa” (Acta Crystallographica Section D: Biological Crystallography, 2015).

Series [1] addresses T1, farnesyl pyrophosphate synthase (PaFPPS, PA4043) (Pseudomonas aeruginosa, UniProt Q9HWY4).
T1 construct: gene ispA; full-length, 295 amino acids, His tag cleaved with TEV
In words: X-ray crystal structure at […] Å (also with GPP, 3zou); DSF shift […] °C; no significant inhibition at […]. It is filed as binding.

Series [2] deals with T2, farnesyl pyrophosphate synthase (PaFPPS, PA4043) (Pseudomonas aeruginosa, UniProt Q9HWY4).
T2 construct: gene ispA; full-length, 295 amino acids
T2 sequence (Q9HWY4 1-295): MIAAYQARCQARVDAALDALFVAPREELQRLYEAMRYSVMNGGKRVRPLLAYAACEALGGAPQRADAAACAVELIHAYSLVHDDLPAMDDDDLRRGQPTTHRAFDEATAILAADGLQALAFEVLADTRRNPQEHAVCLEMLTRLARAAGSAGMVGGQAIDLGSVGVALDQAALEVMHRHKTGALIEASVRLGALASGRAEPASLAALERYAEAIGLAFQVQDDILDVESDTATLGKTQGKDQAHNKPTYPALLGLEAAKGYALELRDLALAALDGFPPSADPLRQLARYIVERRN
In words: turnover with GPP by the purified enzyme, pyrophosphatase-coupled malachite green assay (kcat […] s^-1; no inhibition implied). It counts as biochemical.

Series [3] deals with the molecule itself. In words: crystal structure; sitting-drop vapour diffusion, 25 mg/ml protein; native: 20% PEG 3350, 0.2 M NaF, 0.1 M bis-tris propane pH 6.5; asymmetric unit holds a dimer related by a twofold noncrystallographic axis; 1.55 A.

With `O=C(O)CCn1c(=O)oc2ccccc21` [SPB02696, 3-[2-hydrozybenzo[d]oxazol-3(2H)-yl]propanoic acid], the “X-ray crystal structure at 1.90 Å (also with GPP, 3zou); DSF shift 2.8 °C; no si” value in series [1] was “we describe the details of the enzyme–ligand interactions for fragment hit SPB02696 (termed 6H6 in the deposited coordinate file)”.

For `C=C(C)CCO[P@@](=O)(O)OP(=O)(O)O` [isopentenyl pyrophosphate], the “turnover with GPP by the purified enzyme, pyrophosphatase-coupled malachite gree” value in series [2] is “no reaction took place without both IPP and GPP being present”.

B1: farnesyl pyrophosphate synthase from Pseudomonas aeruginosa PAO1 (locus PA4043) (enzyme, UniProt Q9HWY4 1-295, looked up)
chain: MIAAYQARCQARVDAALDALFVAPREELQRLYEAMRYSVMNGGKRVRPLLAYAACEALGGAPQRADAAACAVELIHAYSLVHDDLPAMDDDDLRRGQPTTHRAFDEATAILAADGLQALAFEVLADTRRNPQEHAVCLEMLTRLARAAGSAGMVGGQAIDLGSVGVALDQAALEVMHRHKTGALIEASVRLGALASGRAEPASLAALERYAEAIGLAFQVQDDILDVESDTATLGKTQGKDQAHNKPTYPALLGLEAAKGYALELRDLALAALDGFPPSADPLRQLARYIVERRN
notes: farnesyl pyrophosphate synthase, P. aeruginosa PAO1, locus PA4043; open reading frame amplified from the genome; protein of 295 amino acids; residues Ala227-Gly254 (loop-HI) disordered in all structures; Vector pNIC28-Bsa4 with N-terminal six-histidine tag and TEV site; the tag is cleaved in the purification; The ESI-MS mass of 34 017.5 Da was of the protein with the His tag; also called PaFPPS; …
As usually defined, the stoichiometry N is the number of molecules, sites or subunits per partner or assembly. Take B1: in series [3], the “stoichiometry N” value came to 2.
